Where a name gives a salt, the structure may show the parent alone.
Tested on: ISC-enriched organoids
Experiment: Primary screen, 384-well 2.5-D organoid differentiation (ENR+CD, 6 days, Target Selective Inhibitor Library, vs whole-plate median): ATP (CellTiter-Glo 3D, CTG)
[1] = primary screen, dose 0.08 uM, standard z score of FC
[2] = primary screen, dose 0.40 uM, standard z score of FC
[3] = primary screen, dose 2.00 uM, standard z score of FC
[4] = primary screen, dose 10.00 uM, standard z score of FC
[5] = Dose 0.08 uM, standard z score of FC
[6] = Dose 0.40 uM, standard z score of FC
[7] = Dose 2.00 uM, standard z score of FC
[8] = Dose 10.00 uM, standard z score of FC

| Compound | Z.CTG (standard z score) (Dose 0.08 uM, primary screen) | Z.CTG (standard z score) (Dose 0.40 uM, primary screen) | Z.CTG (standard z score) (Dose 2.00 uM, primary screen) | Z.CTG (standard z score) (Dose 10.00 uM, primary screen) | Z.CTG [5] | Z.CTG [6] | Z.CTG [7] | Z.CTG [8] | other results |
| --- | --- | --- | --- | --- | --- | --- | --- | --- | --- |
| Cc1c(C(=O)NN2CCCCC2)nn(-c2ccc(Cl)cc2Cl)c1-c1ccc(Cl)cc1 [Rimonabant] | 0.611 | 0.492 | 0.561 | 0.152 |  |  |  |  |  |
| CCC(=O)NCC[C@@H]1CCc2ccc3c(c21)CCO3 [Ramelteon] | −0.066 | 0.369 | −0.752 | 0.358 |  |  |  |  |  |
| CC(=O)Nc1nc2c(Oc3cc(-c4ccc(C(F)(F)F)cc4)ncn3)cccc2s1 [AMG-517] |  |  |  |  |  |  |  |  | Z.CTG [1]: 0.385; Z.CTG [2]: 0.269; Z.CTG [3]: 0.268; Z.CTG [4]: 0.135 |
| COc1ccc2nc([S@@+]([O-])Cc3ncc(C)c(OC)c3C)[nH]c2c1 [Esomeprazole Sodium] |  |  |  |  | 0.689 | 0.475 | 0.923 | 0.648 |  |
| CC(C)n1c(/C=C/C(O)CC(O)CC(=O)O)c(-c2ccc(F)cc2)c2ccccc21 (stereo not shown) [Fluvastatin Sodium] |  |  |  |  | −0.384 | −1.151 | −2.653 | −4.206 |  |
| C#CCC(Cc1cnc2nc(N)nc(N)c2n1)c1ccc(C(=O)N[C@@H](CCC(=O)O)C(=O)O)cc1 (stereo partly shown) [Pralatrexate] | −1.551 | −2.036 | −1.626 | −2.201 |  |  |  |  |  |
| COc1ccc2cccc(CCNC(C)=O)c2c1 [Agomelatine] |  |  |  |  |  |  |  |  | Z.CTG [1]: 0.252; Z.CTG [2]: 0.193; Z.CTG [3]: −0.472; Z.CTG [4]: 0.056 |
| O=C(/C=C/c1ccc(O)c(O)c1)OCCc1ccccc1 [Caffeic Acid Phenethyl Ester] |  |  |  |  | 0.627 | −0.026 | −0.152 | −1.221 |  |
| Cc1[nH]c(/C=C2\C(=O)Nc3ccc(S(=O)(=O)N(C)c4cccc(Cl)c4)cc32)c(C)c1C(=O)N1CCN(C)CC1 [SU11274] | 0.852 | 0.645 | 0.139 | −1.954 |  |  |  |  |  |
| CN1C2CCCC1CC(NC(=O)c1nn(C)c3ccccc13)C2 (stereo not shown) [Granisetron HCl] |  |  |  |  |  |  |  |  | Z.CTG (Dose 0.08 uM, primary screen, standard z score): −0.512; Z.CTG (Dose 0.40 uM, primary screen, standard z score): −0.205; Z.CTG (Dose 2.00 uM, primary screen, standard z score): −0.426; Z.CTG (Dose 10.00 uM, primary screen, standard z score): −0.710 |
| Cc1c(Cc2ccc3ccccc3n2)c2cc(F)ccc2n1CC(=O)O [OC000459] |  |  |  |  | 0.184 | −0.155 | 0.210 | 0.211 |  |
| C[C@H](CS)C(=O)N1CCC[C@H]1C(=O)O [Captopril] |  |  |  |  | −0.134 | 0.257 | 0.294 | 0.255 |  |
| O=c1ncccn1[C@@H]1O[C@H](CO)[C@@H](O)[C@H]1O [Zebularine] |  |  |  |  |  |  |  |  | Z.CTG (standard z score) (dose 0.08 uM): 0.085; Z.CTG (standard z score) (dose 0.40 uM): 0.000; Z.CTG (standard z score) (dose 2.00 uM): −0.213; Z.CTG (standard z score) (dose 10.00 uM): −0.399 |

From patent US20230398130A1, “METHODS AND COMPOSITIONS FOR DIFFERENTIATING STEM CELLS” (Massachusetts Institute of Technology, priority 2020, published 2023)
